Measurements as given in patent US11458114B2, “Methods and compositions for enhancing synthesis secretion and transport of collagen to increase wound strength” (NORTH CELL PHARMACEUTICALS, INC., priority 2020, dated 2022).
“Also recorded” adds a separate entry of the source. Where two headings read alike, the source gives them in different places. Values belong to the molecule of their own block, whether it stands above or below them.

How the values were obtained:
non-cancerous cells = assay: Viable non-cancerous cells after incubation with anticancer drugs in various media; type: cell-based; set-up: Percentage of viable cells, Drugs in commercial formula with SRF: concentration or dose not given beside the values
[1] = test system: cultured human dermal fibroblasts; assay: Procollagen production in cultured human dermal fibroblasts (ELISA); type: cell-based
[2] = test system: Doxorubicin treated wounded hairless rats; assay: Rat wound strength healing study, doxorubicin-impaired wounds; type: in vivo; conditions: for Days to healing: Doxorubicin treated wounded hairless rats, topical, 2% pyruvate salts, 1% L proline, 1% L-citrulline; for Percentage of wound breaking strength, by day 21: compared to non-wounded normal skin (100%)
Protocol: Wound breaking strength is a measurement of wound strength after injury compared to normal noninjuried skin. Fourteen groups of five rats each were studied. The SRF was administered topically daily. All groups were wounded at postoperative day 0, at which time Doxo was given to all Groups. All wounds were harvested at POD 21, and the mean wound breaking strength (WBS) of each group was obtained using an Instron Tensiometer.

wounds = assay: Various drugs administered on wounds with or without sodium pyruvate or SRF: erythema rating and days to total re-epithelization; conditions: for Drug in commercial formula with SRF. Days to healing / Drug in commercial formula with sodium pyruvate only. Days to healing / Drug in commercial formula Days to healing: days to total re-epithelization
Protocol: (§1) All previous studies using pyruvate to treat wounds or be used as an antioxidant used only the sodium salt form of pyruvic acid. The drug products that were tested in previous studies used 1-3% sodium pyruvate and other sodium salts of alpha keto acids by weight 1-3% concentrations in the lotions and triple antibiotic formulations. […]

[3] = test system: laser wounds on the left arm; assay: Pigmentation study on laser wounds; type: in vivo; conditions: range 1-10, 10 totally normal
Excerpt: Six laser wounds were made on the left arm. As an example, Mupirocin was placed on the first wound site, Mupirocin plus sodium pyruvate was placed on the second wound site and Mupirocin with SRF was placed on third wound site. The same process was repeated with another drug for sites 4-6. Every two days the bandages coated with the drugs were removed and replaced five times. Pigmentation measurements range from 1-10 with 10 being totally normal. The mupirocin drug formulas averaged a 4.9 for pigmentation. […]. The addition of the SRF averaged 7.45 a […] increase in pigmentation.

[4] = test system: UVB-induced wrinkle formation; assay: Topical alpha-ketoglutarate on UVB-induced wrinkle formation; type: in vivo, human; conditions: 1% topical, 6 weeks
[5] = test system: skin laser wounds in patients; assay: Salts of pyruvate and SRF on skin laser wounds in patients: healing and irritation
Protocol: as §1

cold sores = assay: Cold sore treatment, 15 subjects; conditions: human, in vivo
wounded hairless Rats = assay: Nitric oxide production and days to healing in wounded hairless rats; type: in vivo, rat; conditions: topical
[6] = Rating 1-10, 1 most erythema, 10 no erythema
[7] = Rating 1-10, 1 most erythema, 10 no erythema, drug alone
[8] = same concentration of pyruvate for each salt, compared with sodium pyruvate formulations or base

Molecule: N.N.O=C([O-])C1(C(=O)[O-])CCC1.[Pt+2] [Carboplatin]
- Percentage of viable cells, Drugs in commercial formula (non-cancerous cells): 50%
- Percentage of viable cells, Drugs in commercial formula sodium pyruvate without SRF (non-cancerous cells): 56%
- Percentage of viable cells, Drugs in commercial formula with SRF (non-cancerous cells): 87%
- Percentage of viable cells after incubation with drugs (non-cancerous cells; drug): 42%
- Percentage of viable cells, Drugs in commercial formula with SRF repeat study (non-cancerous cells; repeat study): 97%

Molecule: O=C(O)[C@@H]1CCCN1C(=O)OCc1ccccc1 [Cbz-Pro, N-benzyloxycarbonyl-L-proline]
- procollagen synthesis by alpha-ketoglutarate ([1]; prolidase inhibitor added): inhibited procollagen synthesis

- impaired normal wound strength by ([2]; Doxo 6 mg/kg i.v., POD 21): 40%
Molecule: COc1cccc2c1C(=O)c1c(O)c3c(c(O)c1C2=O)C[C@@](O)(C(=O)CO)C[C@@H]3O[C@H]1C[C@H](N)[C@H](O)[C@H](C)O1 [Doxorubicin]

- Drugs in commercial formula with SRF erythema (wounds; [6]): 8
- Drugs in commercial formula with sodium pyruvate only erythema (wounds; [6]): 6
- Drugs in commercial formula erythema (wounds; [7]): 4
Molecule: C/C(=C\C(=O)OCCCCCCCCC(=O)O)C[C@@H]1OC[C@H](C[C@@H]2O[C@H]2[C@@H](C)[C@H](C)O)[C@@H](O)[C@H]1O [Mupirocin]
- Drug in commercial formula with SRF. Days to healing (wounds): 11 days
- Drug in commercial formula with sodium pyruvate only. Days to healing (wounds): 15 days
- Drug in commercial formula Days to healing (wounds; drug alone): 20 days
- Pigmentation measurement [3]: 4.9

Molecule: O=C(O)CCC(=O)C(=O)O [alpha-ketoglutarate]
- stimulated procollagen production ([1]; 10 microM, compared to vehicle (dH(2)O)-treated control cells): 25.6+/−4.6%
- activities of prolidase ([1]; fibroblasts): increased
- wrinkle formation [4]: decreased wrinkle formation

Molecule: CC(=O)C(=O)O.N [ammonium pyruvate]
- irritation or toxicity ([5]; human, in vivo): irritating and possibly toxic
- wound healing results [5, 8]: slight increases in healing; also recorded: did not produce increases in healing over the base

Molecule: CC(C)(C#N)c1cc(Cn2cncn2)cc(C(C)(C)C#N)c1 [anastrozole]
- Percentage of viable cells after incubation with drugs (non-cancerous cells): 24%
- Percentage of viable cells, Drugs in commercial formula (non-cancerous cells): 25%
- Percentage of viable cells, Drugs in commercial formula sodium pyruvate without SRF (non-cancerous cells): 50%
- Percentage of viable cells, Drugs in commercial formula with SRF (non-cancerous cells): 86%
- Percentage of viable cells, Drugs in commercial formula with SRF repeat study (non-cancerous cells): 94%

Molecule: CCCCCCCCCCCCCCCCCCCCCCO [docosonal]
- cold sore efficacy, lesion healing (cold sores): better efficacy with the addition of SRF

Molecule: O=c1[nH]c(=O)n([C@H]2C[C@H](O)[C@@H](CO)O2)cc1F [floxuridine]
- Percentage of viable cells after incubation with drugs (non-cancerous cells): 38%
- Percentage of viable cells, Drugs in commercial formula (non-cancerous cells): 38%
- Percentage of viable cells, Drugs in commercial formula sodium pyruvate without SRF (non-cancerous cells): 58%
- Percentage of viable cells, Drugs in commercial formula with SRF (non-cancerous cells): 92%
- Percentage of viable cells, Drugs in commercial formula with SRF repeat study (non-cancerous cells): 91%

Molecule: CC(=O)C(=O)[O-].[Li+] [lithium pyruvate]
- irritation or toxicity ([5]; human, in vivo): irritating and possibly toxic
- wound healing results [5, 8]: slight increases in healing; also recorded: did not produce increases in healing over the base

Molecule: CN(Cc1cnc2nc(N)nc(N)c2n1)c1ccc(C(=O)N[C@@H](CCC(=O)O)C(=O)O)cc1 [methotrexate]
- Percentage of viable cells, Drugs in commercial formula (non-cancerous cells): 43%
- Percentage of viable cells, Drugs in commercial formula sodium pyruvate without SRF (non-cancerous cells): 68%
- Percentage of viable cells, Drugs in commercial formula with SRF (non-cancerous cells): 94%
- Percentage of viable cells after incubation with drugs (non-cancerous cells; drug): 42%
- Percentage of viable cells, Drugs in commercial formula with SRF repeat study (non-cancerous cells; repeat study): 98%

- Drugs in commercial formula with SRF erythema (wounds; [6]): 7
- Drugs in commercial formula with sodium pyruvate only erythema (wounds; [6]): 6
- Drugs in commercial formula erythema (wounds; [7]): 3
Molecule: CN(C/C=C/c1ccccc1)Cc1cccc2ccccc12 [naftifine]
- Drug in commercial formula with SRF. Days to healing (wounds): 13 days
- Drug in commercial formula with sodium pyruvate only. Days to healing (wounds): 14 days
- Drug in commercial formula Days to healing (wounds; drug alone): 20 days

Molecule: C[C@@H]1[C@H](O)[C@@H](C)/C=C/C=C/CC/C=C/C=C/C=C/C=C/C(O[C@H]2O[C@H](C)[C@@H](O)[C@H](N)[C@@H]2O)CC2O[C@](O)(CC(O)C(O)CCC(O)CC(O)CC(O)CC(=O)O[C@H]1C)CC(O)C2C(=O)O (some centres unmarked) [nystatin]
- Drugs in commercial formula with SRF erythema (wounds; [6]): 8
- Drugs in commercial formula with sodium pyruvate only erythema (wounds; [6]): 6
- Drugs in commercial formula erythema (wounds; [7]): 2
- Drug in commercial formula with SRF. Days to healing (wounds): 12 days
- Drug in commercial formula with sodium pyruvate only. Days to healing (wounds): 14 days
- Drug in commercial formula Days to healing (wounds; drug alone): 17 days

Molecule: O=C1[O][Pt]2([NH][C@@H]3CCCC[C@H]3[NH]2)[O]C1=O [oxaliplatin]
- Percentage of viable cells, Drugs in commercial formula (non-cancerous cells): 24%
- Percentage of viable cells, Drugs in commercial formula sodium pyruvate without SRF (non-cancerous cells): 41%
- Percentage of viable cells, Drugs in commercial formula with SRF (non-cancerous cells): 95%
- Percentage of viable cells after incubation with drugs (non-cancerous cells; drug): 23%
- Percentage of viable cells, Drugs in commercial formula with SRF repeat study (non-cancerous cells; repeat study): 98%

- Drugs in commercial formula with SRF erythema (wounds; [6]): 9
- Drugs in commercial formula with sodium pyruvate only erythema (wounds; [6]): 7
- Drugs in commercial formula erythema (wounds; [7]): 6
Molecule: Clc1ccc(CO/N=C(\Cn2ccnc2)c2ccc(Cl)cc2Cl)c(Cl)c1 [oxiconazole]
- Drug in commercial formula with SRF. Days to healing (wounds): 11 days
- Drug in commercial formula with sodium pyruvate only. Days to healing (wounds): 14 days
- Drug in commercial formula Days to healing (wounds; drug alone): 18 days

Molecule: Oc1ccccc1 [phenol]
- cold sore efficacy, lesion healing (cold sores): did not work very well

Molecule: CC(=O)C(=O)[O-].[Na+] [sodium salt of pyruvic acid, sodium pyruvate]
- irritation or toxicity ([5]; human, in vivo): no irritation
- wound healing results [5, 8]: enhanced healing

- Drugs in commercial formula with SRF erythema (wounds; [6]): 8
- Drugs in commercial formula with sodium pyruvate only erythema (wounds; [6]): 6
- Drugs in commercial formula erythema (wounds; [7]): 4
Molecule: Clc1ccc(CSC(Cn2ccnc2)c2ccc(Cl)cc2Cl)cc1 (centres unmarked) [sulconazole]
- Drug in commercial formula with SRF. Days to healing (wounds): 11 days
- Drug in commercial formula with sodium pyruvate only. Days to healing (wounds): 15 days
- Drug in commercial formula Days to healing (wounds; drug alone): 20 days

- Drugs in commercial formula with SRF erythema (wounds; [6]): 7
- Drugs in commercial formula with sodium pyruvate only erythema (wounds; [6]): 7
- Drugs in commercial formula erythema (wounds; [7]): 7
Molecule: Cc1cccc(N(C)C(=S)Oc2ccc3ccccc3c2)c1 [tolnaftate]
- Drug in commercial formula with SRF. Days to healing (wounds): 10 days
- Drug in commercial formula with sodium pyruvate only. Days to healing (wounds): 13 days
- Drug in commercial formula Days to healing (wounds; drug alone): 21 days

- Drugs in commercial formula with SRF erythema (wounds; [6]): 8
- Drugs in commercial formula with sodium pyruvate only erythema (wounds; [6]): 8
- Drugs in commercial formula erythema (wounds; [7]): 8
Molecule: CC(C)[C@H](N)C(=O)OCCOCn1cnc2c(=O)[nH]c(N)nc21 [valaciclovir]
- Drug in commercial formula with SRF. Days to healing (wounds): 14 days
- Drug in commercial formula with sodium pyruvate only. Days to healing (wounds): 17 days
- Drug in commercial formula Days to healing (wounds; drug alone): 18 days

Molecule: Bevacizumab
- Percentage of viable cells after incubation with drugs (non-cancerous cells): 21%
- Percentage of viable cells, Drugs in commercial formula (non-cancerous cells): 27%
- Percentage of viable cells, Drugs in commercial formula sodium pyruvate without SRF (non-cancerous cells): 40%
- Percentage of viable cells, Drugs in commercial formula with SRF repeat study (non-cancerous cells): 87%

Molecule: Bleomycin
- Percentage of viable cells, Drugs in commercial formula (non-cancerous cells): 33%
- Percentage of viable cells, Drugs in commercial formula sodium pyruvate without SRF (non-cancerous cells): 47%
- Percentage of viable cells, Drugs in commercial formula with SRF (non-cancerous cells): 98%
- Percentage of viable cells after incubation with drugs (non-cancerous cells; drug): 31%
- Percentage of viable cells, Drugs in commercial formula with SRF repeat study (non-cancerous cells; repeat study): 98%

Molecule: Calcium pyruvate
- Days to healing [2]: 14 days
- Percentage of wound breaking strength, by day 21 [2]: 42%
- % of NO levels against normal nonwounded skin (wounded hairless Rats): 22%
- Days to healing (wounded hairless Rats): 15 days

Molecule: Magnesium pyruvate
- Days to healing [2]: 14 days
- Percentage of wound breaking strength, by day 21 [2]: 44%
- wound healing results ([5]; human, in vivo): slight increases in healing; also recorded: did not produce increases in healing over the base
- % of NO levels against normal nonwounded skin (wounded hairless Rats): 36%
- Days to healing (wounded hairless Rats): 13 days

Molecule: aluminum pyruvate
- wound healing results [5, 8]: slight increases in healing; also recorded: did not produce increases in healing over the base

Molecule: manganese pyruvate
- wound healing results [5, 8]: slight increases in healing; also recorded: did not produce increases in healing over the base

- Drugs in commercial formula erythema (wounds; in vivo): 5
- Drugs in commercial formula with SRF erythema (wounds; in vivo): 7
- Drugs in commercial formula with sodium pyruvate only erythema (wounds; in vivo): 6
Molecule: microazole
- Drug in commercial formula with SRF. Days to healing (wounds): 11 days
- Drug in commercial formula with sodium pyruvate only. Days to healing (wounds): 12 days
- Drug in commercial formula Days to healing (wounds; drug alone): 19 days
